Test results published in patent US6323193A, “Bioavailable oral dosage form of cefuroxime axetil” (Ranbaxy Laboratories Limited, priority 1999, dated 2001).
Like-named read-outs stand apart in the source and are kept apart here.

Columns and labels:
[1] = system: gram-positive and gram-negative microorganisms; settings: cited from earlier work
[2] = oral administration, cited from earlier work
[3] = Behaviour of amorphous cefuroxime axetil in contact with water (conversion to crystalline form, gel formation); format: physicochemical; settings: formulation with sodium salt of citric acid
[4] = cited from earlier work

In the case of `CO/N=C(\C(=O)N[C@@H]1C(=O)N2C(C(=O)OC(C)OC(C)=O)=C(COC(N)=O)CS[C@H]12)c1ccco1` (stereo partly shown) [Cefuroxime axetil, 1-acetoxyethyl ester of cefuroxime], the spectrum of activity [1] is given as “broad spectrum of activity”.
For `CO/N=C(\C(=O)N[C@@H]1C(=O)N2C(C(=O)OC(C)OC(C)=O)=C(COC(N)=O)CS[C@H]12)c1ccco1` (stereo partly shown) [Crystalline cefuroxime axetil], the bioavailability [2] is listed as “does not exhibit adequate bioavailability”.
In the case of `CO/N=C(\C(=O)N[C@@H]1C(=O)N2C(C(=O)OC(C)OC(C)=O)=C(COC(N)=O)CS[C@H]12)c1ccco1` (stereo partly shown) [amorphous cefuroxime axetil], the “tendency to form a gel on addition of a sodium salt of citric acid” value [3] is given as “inhibits the tendency of amorphous cefuroxime axetil to form a gel”, the bioavailability ([2]; listed as amorphous form of cefuroxime axetil) is given as “high bioavailability” and the bioavailability ([2]; listed as highly pure amorphous cefuroxime axetil) is given as “higher bioavailability than crystalline cefuroxime axetil”. The gel formation ([4]; contact with water) was “forms a gel which prolongs the disintegration and retards the dissolution” and the “conversion to the crystalline form” value ([4]; upon contact with water) was “gets converted to the crystalline form”.
